Tested on: cord blood derived CD34+ cells
Test: Ex vivo culture of cord blood derived CD34+ cells, graft composition by flow
Type: cell-based, human
Settings: expanded cord blood; UM171 35 nM, SR1 500 nM

SMILES | dendritic cells population (CD86+CD34+) share of the graft
CC(C)n1cnc2c(NCCc3ccc(O)cc3)nc(-c3csc4ccccc34)nc21 [SR1] | less than 5%

Tested on: CD34 + CD45RA- cells
Test: Expansion of CD34+CD45RA- cells compared to DMSO (EC50)
Type: cell-based
Settings: concentration of compound necessary to expand 50% more of CD34+CD45RA- cells as compared to cells treated with DMSO

SMILES | EC50 [nM]
COC(=O)c1ccc2c(c1)[nH]c1nc(Cc3cccc(C)c3)nc(NCCCN3CCCCC3)c12 [Compound 1] | 38
COC(=O)c1ccc2c(c1)[nH]c1nc(Cc3cccc(F)c3)nc(NCCCN3CCCCC3)c12 [Compound 2] | 20
COC(=O)c1ccc2c(c1)[nH]c1nc(Cc3cccs3)nc(NCCCN3CCCCC3)c12 [Compound 3] | 8
COC(=O)c1ccc2c(c1)[nH]c1nc(Cc3cccnc3)nc(NCCCN3CCCCC3)c12 [Compound 4] | 14
CCOC(=O)c1ccc2c(c1)[nH]c1nc(Cc3ccccc3)nc(NCCCN3CCCCC3)c12 [Compound 5] | 154
COC(=O)c1ccc2c(c1)[nH]c1nc(Cc3cccc(C(O)C(F)(F)F)c3)nc(NCCCN3CCCCC3)c12 (centres unmarked) [Compound 6] | 16
COC(=O)c1ccc2c(c1)[nH]c1nc(Cc3cccc(C(=O)C(F)(F)F)c3)nc(NCCCN3CCCCC3)c12 [Compound 7] | 31
COC(=O)c1ccc2c(c1)[nH]c1nc(Cc3ccc4ccccc4c3)nc(NCCCN3CCCCC3)c12 [Compound 8] | 150
C#CCOC(CNc1nc(Cc2ccccc2)nc2[nH]c3cc(C(=O)OC)ccc3c12)CN1CCCCC1 (centres unmarked) [Compound 9] | 24
COC(=O)c1ccc2c(c1)[nH]c1nc(Cc3ccccc3)nc(NCC(O)CN3CCCCC3)c12 (centres unmarked) [Compound 10] | 7
COC(=O)c1ccc2c(c1)[nH]c1nc(Cc3ccccc3)nc(NCCCN(C)CC(O)COCc3ccccc3)c12 (centres unmarked) [Compound 11] | 101
CNC(=O)c1ccc2c(c1)[nH]c1nc(Cc3ccccc3)nc(NCCCN3CCCCC3)c12 [Compound 12] | 2440
COC(=O)c1ccc2c(c1)[nH]c1nc(C(OC)c3ccccc3)nc(NCCCN3CCCCC3)c12 (centres unmarked) [Compound 13] | 68
COC(=O)c1ccc2c(c1)[nH]c1nc(C(O)c3ccccc3)nc(NCCCN3CCCCC3)c12 (centres unmarked) [Compound 14] | 4
COC(=O)c1ccc2c(c1)[nH]c1nc(Cc3ccccc3)nc(SCCCN3CCCCC3)c12 [Compound 15] | 327
COC(=O)c1ccc2c(c1)[nH]c1nc(C(=O)c3ccccc3)nc(SCCCN3CCCCC3)c12 [Compound 16] | 5
COC(=O)c1ccc2c(c1)[nH]c1nc(Cc3ccccc3)nc(CCCCN3CCCCC3)c12 [Compound 17] | 15
COC(=O)c1ccc2c(c1)[nH]c1nc(C(C)c3ccccc3)nc(NCCCN3CCCCC3)c12 (centres unmarked) [Compound 18] | 67
COC(=O)c1ccc2c(c1)[nH]c1nc(Cc3cccc(CO)c3)nc(NCCCN(C)CCCN)c12 [Compound 19] | 38
COC(=O)c1ccc2c(c1)[nH]c1nc(Cc3cccc(CC(=O)O)c3)nc(NCCCN(C)CCCN)c12 [Compound 20] | 113
COC(=O)c1ccc2c(c1)[nH]c1nc(Cc3ccccc3)nc(NCCCN(C)CCCNc3ncnc4[nH]c5ccccc5c34)c12 [Compound 21] | 19

SMILES | EC50 [nM]
CN1CCN(c2ccc(CNc3nc(Cc4ccccc4)nc4[nH]c5cc(-c6nnn(C)n6)ccc5c34)cc2)CC1 [Compound 22] | 100
CN(CCCNC(=O)COCCOCCN)CCCNc1nc(Cc2ccccc2)nc2[nH]c3cc(-c4nnn(C)n4)ccc3c12 [Compound 23] | 249
CN(CCCN)CCCNc1nc(Cc2ccccc2Br)nc2[nH]c3cc(-c4nnn(C)n4)ccc3c12 [Compound 24] | 51
CN(CCCN)CCCNc1nc(Cc2cccc(Br)c2)nc2[nH]c3cc(-c4nnn(C)n4)ccc3c12 [Compound 25] | 115
CN(CCC[N+](C)(C)C)c1nc(Cc2ccccc2)nc2[nH]c3cc(-c4nnn(C)n4)ccc3c12 [Compound 26] | 484
Cn1nnc(-c2cnc3c(c2)[nH]c2nc(Cc4ccccc4)nc(N[C@H]4CC[C@H](N)CC4)c23)n1 [Compound 27] | 367
Cn1nnc(-c2ccc3c(c2)[nH]c2ncnc(NCCCN4CCC(O)CC4)c23)n1 [Compound 28] | 277
Cn1nnc(-c2ccc3c(c2)[nH]c2ncnc(NCCCCN4CCCCC4)c23)n1 [Compound 29] | 36
CNCCCNc1ncnc2[nH]c3cc(-c4nnn(C)n4)ccc3c12 [Compound 30] | 135
CCN(CC)CCN(CC)c1nc(Cc2ccccc2)nc2[nH]c3cc(C(=O)OC)cnc3c12 [Compound 31] | 394
C#Cc1cccc(Cc2nc(NCCN(C)CCN)c3c(n2)[nH]c2cc(-c4nnn(C)n4)ccc23)c1 [Compound 32] | 104
COC(=O)c1ccc2c(c1)[nH]c1nc(Cc3ccccc3)nc(NCCNS(C)(=O)=O)c12 [Compound 33] | 33
COC(=O)c1ccc2c(c1)[nH]c1cc(Cc3cccc(OC)c3)nc(NCCCCN3CCCC3)c12 [Compound 34] | 76
COC(=O)c1ccc2c(c1)[nH]c1cc(Cc3cccc(O)c3)nc(NCCCCN3CCCC3)c12 [Compound 35] | 44
[H]/N=C(/N)NCCNc1nc(Cc2ccccc2)nc2[nH]c3cc(C(=O)OC)ccc3c12 [Compound 36] | 68
COC(=O)c1ccc2c(c1)[nH]c1nc(Cc3ccccc3)nc(NCCN(C)C(C)=O)c12 [Compound 37] | 83
COC(=O)c1ccc2c(c1)[nH]c1cc(Cc3cccnc3)cc(NCCCN3CCOCC3)c12 [Compound 38] | 704
COC(=O)c1ccc2c(c1)[nH]c1cc(Cc3ccsc3)nc(N[C@H]3CC[C@H](N)CC3)c12 [Compound 39] | 114
COC(=O)c1ccc2c(c1)[nH]c1nc(Cc3ccccc3)nc(NCCCCCN(C)C)c12 [Compound 40] | 2
COC(=O)c1ccc2c(c1)[nH]c1nc(Cc3ccccc3)nc(NCCCCCCCCN)c12 [Compound 41] | 39
COC(=O)c1ccc2c(c1)[nH]c1nc(Cc3ccccc3)nc(NCCN3CCOCC3)c12 [Compound 42] | 12

SMILES | EC50 [nM]
CNS(=O)(=O)c1cccc(Nc2ncnc3[nH]c4cc(C(=O)OC)ccc4c23)c1 [Compound 43] | 263
COC(=O)c1ccc2c(c1)[nH]c1nc(Cc3ccccc3)nc(NCC(O)CO)c12 (centres unmarked) [Compound 44] | 59
COC(=O)c1ccc2c(c1)[nH]c1nc(Cc3ccccc3)nc(NCCN(C)CC(F)F)c12 [Compound 45] | 336
Cn1nnc(-c2ccc3c(c2)[nH]c2nc(Cc4ccccc4)nc(NCCOCCO)c23)n1 [Compound 46] | 141
COC(=O)c1ccc2c(c1)[nH]c1nc(Cc3ccccc3)nc(NCCCO)c12 [Compound 47] | 26
COC(=O)c1ccc2c(c1)[nH]c1nc(Cc3ccccc3)nc(NCCCN(C)CCCNC(=N)N)c12 [Compound 48] | 61
COC(=O)c1ccc2c(c1)[nH]c1nc(Cc3ccccc3)nc(NCCCN3C(=O)CCC3=O)c12 [Compound 49] | 41
COC(=O)c1ccc2c(c1)[nH]c1nc(Cc3ccccc3)nc(NCCS(N)(=O)=O)c12 [Compound 50] | 67
CNS(=O)(=O)c1ccc(CNc2nc(Cc3ccccc3)nc3[nH]c4cc(C(=O)OC)ccc4c23)cc1 [Compound 51] | 62
COC(=O)c1ccc2c(c1)[nH]c1nc(Cc3ccccc3)nc(NCC3CCCNC3)c12 (centres unmarked) [Compound 52] | 7
COC(=O)c1ccc2c(c1)[nH]c1nc(CCc3ccccc3)nc(NCCCN(C)CC(O)C[N+](C)(C)C)c12 (centres unmarked) [Compound 53] | 117
COC(=O)c1ccc2c(c1)[nH]c1nc(Cc3ccccc3)nc(NCCCCO)c12 [Compound 54] | 118
COC(=O)c1ccc2c(c1)[nH]c1nc(Cc3ccccc3)nc(NCC3CCCN(C(=O)OC)C3)c12 (centres unmarked) [Compound 55] | 79
COC(=O)c1ccc2c(c1)[nH]c1nc(Cc3ccccc3)nc(NCc3cnc(C)cn3)c12 [Compound 56] | 48
CCNCCNc1nc(Cc2ccccc2)nc2[nH]c3cc(C(=O)OC)ccc3c12 [Compound 57] | 4.8
COC(=O)c1ccc2c(c1)[nH]c1nc(Cc3ccccc3)nc(NCCC#N)c12 [Compound 58] | 79
COC(=O)c1ccc2c(c1)[nH]c1nc(Cc3ccccc3)nc(NCCNC3=NCCC3)c12 [Compound 59] | 75
COC(=O)c1ccc2c(c1)[nH]c1nc(Cc3ccccc3)nc(NNc3ccc(S(C)(=O)=O)cc3)c12 [Compound 60] | 23
COC(=O)c1ccc2c(c1)[nH]c1nc(Cc3ccccc3)nc(NCCN(C(C)C)C(C)C)c12 [Compound 61] | 10.1

Source: US12011460B2, “Expansion of NK and DC cells in vivo mediating immune response” (UNIVERSITE DE MONTREAL, priority 2018, dated 2024)
